Where two headings read alike, the source gives them in different places. Square brackets hold non-standard residues; d marks the D form. Peptide text beside a SMILES is read from it. * marks the point of attachment. Naphthalene1sulfonyl = O=S(=O)(c1cccc2ccccc12)*; Gly(2-thienyl) = N[C@H](C(=O)O)c1cccs1; Hexanoyl(6-Ph) = O=C(CCCCCc1ccccc1)*; Mtr = COc1cc(C)c(S(=O)(=O)*)c(C)c1C; Butanoyl(4-Ph) = O=C(CCCc1ccccc1)*; 1Naphthoyl = O=C(c1cccc2ccccc12)*; NHPhenethyl = c1ccc(CCN*)cc1; Phg = N[C@H](C(=O)O)c1ccccc1; Tos = Cc1ccc(S(=O)(=O)*)cc1; Bz = O=C(c1ccccc1)*

One data set deals with T1, Human LH-RH Receptor (Homo sapiens, UniProt P30968).
T1 construct: expressed in transfected cells; host or cells: CHO cells (Chinese hamster ovary), membrane fraction
T1 sequence (P30968 1-328): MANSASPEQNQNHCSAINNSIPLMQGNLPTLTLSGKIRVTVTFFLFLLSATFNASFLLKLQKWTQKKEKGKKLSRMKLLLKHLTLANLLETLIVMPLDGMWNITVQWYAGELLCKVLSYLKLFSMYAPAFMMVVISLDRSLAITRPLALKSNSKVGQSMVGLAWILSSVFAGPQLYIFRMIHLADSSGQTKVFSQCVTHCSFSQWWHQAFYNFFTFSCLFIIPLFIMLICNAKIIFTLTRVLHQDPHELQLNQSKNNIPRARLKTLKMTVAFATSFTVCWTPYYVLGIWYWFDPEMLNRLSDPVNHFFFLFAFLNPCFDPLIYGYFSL
Briefly: Inhibition of bonding of 125I-leuprorelin to human LH-RH receptor (receptor assay). The data set is classed as binding. Conditions: human LH-RH receptor-expressing CHO cell membrane fraction, 25° C. for 60 minutes, Hill plotting. On the procedure:
Human LH-RH receptor-expressing CHO cells (10^9 cells) were floated in a phosphate buffer saline containing 5 mM EDTA (PBS-EDTA) and subjected to centrifugation at 100×g for 5 minutes. 10 ml of a cell homogenate buffer (10 mM NaHCO3, 5 mM EDTA, pH 7.5) was added to the resulting cell pellets, and the resulting mixture was then homogenized in a polytron homogenizer. This was thereafter centrifuged at 400×g for 15 minutes, and the resulting supernatant was collected in an ultra-centrifuger and again centrifuged at 100,000×g for 1 hour to obtain a precipitate of the cell membrane fraction. This precipitate was suspended in 2 ml of an assay buffer and centrifuged at 100,000×g for 1 hour. The cell membrane fraction thus collected as a precipitate was again suspended in 20 ml of an assay buffer, put into plural vials and stored at -80° C. These were individually thawed before use.
Determination of Percentage of Inhibition of Bonding of ^125 I-Leuprorelin to Human LH-RH Receptor
The human LH-RH receptor-expressing CHO cell membrane fraction as prepared in Reference Example 2 was diluted with an assay buffer to have a concentration of 200 μg/ml and put into plural tubes at 188 μl/tube. Where the human LH-RH receptor-expressing CHO cell membrane fraction was used, 2 μl of a solution of the test compound (2 mM) as dissolved in 60%-DMSO and 10 μl of ^125 I-leuprorelin (38 nM) were added to the dilution of the fraction. In order to measure the maximum amount of the ^125 I-leuprorelin as bonded to the receptor, a reaction system comprising 2 μl of 60%-DMSO and 10 μl of ^125 -leuprorelin (38 nM) was prepared. In order to measure the amount of ^125 I-leuprorelinas non-specifically bonded to the receptor, a reaction system comprising 2 μl of leuprorelin (100 μM) as dissolved in 60%-DMSO and 10 μl of ^125 I-leuprorelin (38 nM) was prepared.
Each system of the present invention comprising the human LH-RH receptor-expressing CHO cell membrane fraction was reacted at 25° C. for 60 minutes. After the reaction, the reaction mixture was filtered under suction through a polyethyleneimine-treated Wattman glass filter (GF-F). After the filtration, the radioactivity of ^125 I-leuprorelin in the residue remained on the filter paper was measured using a g-counter.
From the data measured, a value of [(TB-SB)/(TB-NSB)]×100 (where SB is the radioactivity of the test system to which the test compound had been added; TB is the radioactivity of the maximum bonding system; and NSB is the radioactivity of the non-specific bonding system) was calculated, which indicates the bonding-inhibition percentage (%) of the compound tested. […] The results obtained are shown in [Table 1].

For data set [1] the following is noted: amide bond, 15-membered ring.
For data set [2] the following is noted: amide bond, DMF.
The conditions of data set [3]: amide bond; 15-membered ring; PyBOP/DIEA; DMF; 25.0 °C; 2 steps.
[4] abbreviates: DIEA/AcOH, DMF, resin, with chain assembly.

`CC(C)C[C@@H]1NC(=O)[C@@H](Cc2c[nH]c3ccccc23)NC(=O)[C@H](Cc2ccc(O)cc2)NC(=O)[C@@H](CCCCNS(=O)(=O)c2cccc3ccccc23)NC(=O)[C@H](CCCNC(=N)N)NC1=O` [Example 1, cyclo(-Arg-D-Lys(SO2 Nap(1))-Tyr-D-Trp-Leu-)] (cyclo(LR[dK](Naphthalene1sulfonyl)Y[dW])) came in with an IC50 at Human LH-RH Receptor of 0.9 µM. On the same count and under the same terms, the value for `CC(C)C[C@@H]1NC(=O)[C@@H](Cc2c[nH]c3ccccc23)NC(=O)[C@H](Cc2ccc(O)cc2)NC(=O)[C@@H](CCCCNC(=O)CCCc2ccccc2)NC(=O)[C@H](CCCNC(=N)N)NC1=O` [Example 19, cyclo(-Arg-D-Lys(COCH2 CH2 CH2 Ph)-Tyr-D-Trp-Leu-)] (cyclo(LR[dK](Butanoyl(4-Ph))Y[dW])) was 1 µM; that for `CC(C)C[C@@H]1NC(=O)[C@@H](Cc2c[nH]c3ccccc23)NC(=O)[C@H](Cc2ccc(O)cc2)NC(=O)[C@@H](CCCCNC(=O)CCCCCc2ccccc2)NC(=O)[C@H](CCCNC(=N)N)NC1=O` [Example 20, cyclo(-Arg-D-Lys (COCH2 CH2 CH2 CH2 CH2 Ph)-Tyr-D-Trp-Leu-)] (cyclo(LR[dK](Hexanoyl(6-Ph))Y[dW])) was 0.1 µM; that for `CC(C)C[C@@H]1NC(=O)[C@@H](Cc2c[nH]c3ccccc23)NC(=O)[C@H](CCCCNC(=O)c2ccccc2)NC(=O)[C@@H](CCC(=O)NCCc2ccccc2)NC(=O)[C@H](CCCNC(=N)N)NC1=O` [Example 21, cyclo(-Arg-D-Glu(NHCH2 CH2 Ph)-Lys(COPh)-D-Trp-Leu-)] (cyclo(K(Bz)[dW]LR[dE](NHPhenethyl))) was 0.4 µM.

Regarding `CC(C)C[C@@H]1NC(=O)[C@@H](Cc2c[nH]c3ccccc23)NC(=O)[C@H](CCCNC(=N)N)NC(=O)[C@@H](Cc2ccc(O)cc2)NC(=O)[C@@H](CCCCNS(=O)(=O)c2cccc3ccccc23)NC1=O` [Example 23, cyclo(-D-Tyr-Arg-D-Trp-Leu-D-Lys(SO2 Nap(1))-)] (cyclo(L[dK](Naphthalene1sulfonyl)[dY]R[dW])), the IC50 at Human LH-RH Receptor was found to be 0.9 µM. On the same count and under the same terms, the figure for `CC(C)C[C@@H]1NC(=O)[C@@H](Cc2c[nH]c3ccccc23)NC(=O)[C@H](CCCCNC(=O)c2cccc3ccccc23)NC(=O)[C@@H](CCC(=O)NCCc2ccccc2)NC(=O)[C@H](CCCNC(=N)N)NC1=O` [Example 31, cyclo(-Arg-D-Glu(NHCH2 CH2 Ph)-Lys(CONap(1))-D-Trp-Leu-)] (cyclo(K(1Naphthoyl)[dW]LR[dE](NHPhenethyl))) is 0.2 µM; for `COc1cc(C)c(S(=O)(=O)NC(=N)NCCC[C@H]2NC(=O)[C@H](Cc3ccccc3)NC(=O)[C@H](Cc3c[nH]c4ccccc34)NC(=O)[C@@H](C)NC(=O)[C@H](Cc3ccccc3)NC2=O)c(C)c1C` [Example 35, cyclo(-Phe-D-Arg-(Mtr)-Phe-D-Ala-Trp-)] (cyclo(F[dA]WF[dR](Mtr))) it is 0.4 µM. Still for that read-out and setting: the value for `C[C@H]1NC(=O)[C@H](Cc2ccccc2)NC(=O)[C@@H](CCCNC(=N)N)NC(=O)[C@H](Cc2ccccc2)NC(=O)[C@H](Cc2c[nH]c3ccccc23)NC1=O` [Example 36, cyclo(-Phe-D-Arg-Phe-D-Ala-Trp-)] (cyclo(F[dA]WF[dR])) was 0.9 µM; that for `Cc1ccc(S(=O)(=O)NC(=N)NCCC[C@H]2NC(=O)[C@H](Cc3ccccc3)NC(=O)[C@H](Cc3c[nH]c4ccccc34)NC(=O)[C@@H](C)NC(=O)[C@H](Cc3ccccc3)NC2=O)cc1` [Example 37, cyclo(-Phe-D-Arg(Tos)-Phe-D-Ala-Trp-)] (cyclo(F[dA]WF[dR](Tos))) was 0.3 µM; that for `C[C@H]1NC(=O)[C@H](Cc2ccccc2)NC(=O)[C@H](CCCNC(=N)N)NC(=O)[C@H](Cc2ccccc2)NC(=O)[C@H](Cc2c[nH]c3ccccc23)NC1=O` [Example 43, cyclo(-Phe-Arg-Phe-D-Ala-Trp-)] (cyclo(FRF[dA]W)) was 1 µM.

Consider `Cc1ccc(S(=O)(=O)NC(=N)NCCC[C@H]2NC(=O)[C@H](c3ccccc3)NC(=O)[C@H](Cc3c[nH]c4ccccc34)NC(=O)[C@@H](C)NC(=O)[C@H](Cc3ccccc3)NC2=O)cc1` [Example 48, cyclo(-Phg-D-Arg(Tos)-Phe-D-Ala-Trp-)] (cyclo(F[dA]W[Phg][dR](Tos))), for which it took 0.07 µM to reach half-maximal inhibition at Human LH-RH Receptor (IC50).

As for `Cc1ccc(S(=O)(=O)NC(=N)NCCC[C@H]2NC(=O)[C@H](C)NC(=O)[C@H](Cc3c[nH]c4ccccc34)NC(=O)[C@@H](C)NC(=O)[C@H](Cc3ccccc3)NC2=O)cc1` [Example 51, cyclo(-Ala-D-Arg(Tos)-Phe-D-Ala-Trp-)] (cyclo(A[dR](Tos)F[dA]W)), inhibition on Human LH-RH Receptor was half-maximal at 0.2 µM (IC50). Regarding `Cc1ccc(S(=O)(=O)NC(=N)NCCC[C@H]2NC(=O)[C@H](c3ccccc3)NC(=O)[C@H](Cc3ccccc3)NC(=O)[C@@H](C)NC(=O)[C@H](Cc3ccccc3)NC2=O)cc1` [Example 53, cyclo(-Phg-D-Arg(Tos)-Phe-D-Ala-Phe-)] (cyclo(F[Phg][dR](Tos)F[dA])), at Human LH-RH Receptor, half-maximal inhibition (IC50) was put at 0.1 µM.

Turning to `Cc1ccc(S(=O)(=O)NC(=N)NCCC[C@H]2NC(=O)[C@H](c3cccs3)NC(=O)[C@H](Cc3c[nH]c4ccccc34)NC(=O)[C@@H](C)NC(=O)[C@H](Cc3ccccc3)NC2=O)cc1` [Example 54, cyclo(-Thg(2)-D-Arg(Tos)-Phe-D-Ala-Trp-)] (cyclo(F[dA]W[Gly(2-thienyl)][dR](Tos))), the midpoint of inhibition against Human LH-RH Receptor, the IC50, lay at 0.3 µM.

`C[C@H]1NC(=O)[C@H](Cc2ccccc2)NC(=O)[C@@H](CCCNC(=N)N)NC(=O)[C@H](c2ccccc2)NC(=O)[C@H](Cc2c[nH]c3ccccc23)NC1=O` [Example 55, cyclo(-Phg-D-Arg-Phe-D-Ala-Trp-)] (cyclo(F[dA]W[Phg][dR])) came in with an IC50 at Human LH-RH Receptor of 0.2 µM.

In turn, `CC(C)C[C@@H]1NC(=O)[C@@H](Cc2c[nH]c3ccccc23)NC(=O)[C@H](Cc2ccc(O)cc2)NC(=O)[C@@H]2CCCN2C(=O)[C@H](Cc2c[nH]c3ccccc23)NC(=O)[C@H](CCCNC(=N)N)NC1=O` [Reference Example 1, cyclo(-Tyr-D-Trp-Leu-Arg-Trp-Pro-), reference compound] (cyclo(LRWPY[dW])) displayed an IC50 against Human LH-RH Receptor of 10 µM. Compound “Cyclo(-Arg(Tos)-D-Glu(NHCH2 CH2 Ph)-Lys(Cl-Z)-D-Trp-Leu-)” returned a ring closure, crude yield in data set [1] (ONB active ester, 4 steps) of 72.3%. The compound “cyclo(-D-Tyr-Arg-D-Trp-Leu-D-Lys(SO2 Nap(1))-)” gave a ring closure, yield after HPLC in data set [2] (15-membered ring, DIEA (active ester), 3.28 mM, 5 steps) of 54.3%. Consider “cyclo(-Leu-D-Arg-Lys(SO2 Nap(1)-D-Tyr-Trp-)”, for which, in data set [2] (15-membered ring, DIEA, 1.1 mM, 5 steps), the ring closure, yield after HPLC amounted to 21.1%. In data set [2] (15-membered ring, ONB active ester/DIEA, 1.19 mM, 5 steps), “cyclo(-Lys(isopropyl)-D-Glu(NHCH2 CH2 Ph)-Tyr-D-Lys(Nic)-Leu-)” registered a ring closure, yield after HPLC of 44.3%. For the compound cyclo(-Lys-D-Glu(Php)-Tyr-D-Trp-Leu-), the ring closure, yield after HPLC in data set [2] (15-membered ring, DIEA (active ester), 1.11 mM, 5 steps) stood at 23.5%.

On to cyclo(-Phe-D-Arg(Tos)-Phe-D-Phe-Trp-), for which, in data set [3], the ring closure, isolated yield turned out to be 70.6%. On the same count and under the same terms, the value for cyclo(-Phe-D-Arg(Tos)-Phe-D-Trp-Trp-) was 83%. “cyclo(-Thg(2)-D-Arg(Tos)-Phe-D-Ala-Trp-)” displayed a ring closure, yield after HPLC in data set [2] (15-membered ring, PyBOP/DIEA, 25.0 °C) of 13.8%.

In data set [2] (18-membered ring, DIEA, 1.0 mM, 5 steps), cyclo(-Tyr-D-Trp-Leu-Arg-Trp-Pro-) returned a ring closure, yield after HPLC of 15.3%.

Compound “cyclo(-pClPhe-Arg(Tos)-Nal(2)-D-Ala-Trp-)” came in with a ring closure, crude yield in data set [1] (setting [4]) of 59.1%. For “cyclo(-pClPhe-D-Arg(Tos)-Nal(2)-D-Ala-Trp-)”, the ring closure, crude yield in data set [1] (setting [4]) amounted to 92.8%.

For orientation: IC50 means the concentration that gives 50% inhibition. Low values mean greater potency in that assay, high ones weaker potency in that assay.

The values are drawn from US6136781A, “LH-RH receptor antagonists” (Takeda Chemical Industries, Ltd., priority 1995, dated 2000).
